In patent US20260250318A1, “COMPOSITIONS AND METHODS FOR CROSSING THE BLOOD BRAIN BARRIER” (VOYAGER THERAPEUTICS, INC., priority 2022, published 2026):

Tested on: brains, heart, liver, muscle, and DRG of the NHPs
Test: Maturation of TTM-001 and TTM-002 capsids, NGS enrichment in NHP tissues
Assay type: in vivo
Excerpt: This Example describes maturation of the AAV9 capsid variants, TTM-001 (SEQ ID NO: 981 (amino acid) and 983 (DNA), comprising SEQ ID NO: 941 (encoded by SEQ ID NO: 942)) and TTM-002 (SEQ ID NO: 982 (amino acid) and 984 (DNA), comprising SEQ ID NO: […] (encoded by SEQ ID NO: 944)) in NHPs to further enhance their transduction and biodistribution in the central nervous system as well as other tissues, and evolve the AAV capsid variants to provide further cross-species compatibility. Two approaches were used to mature the TTM-001 and TTM-002 capsid sequences in order to randomize and mutate within and around the peptide insert comprised within loop IV of the capsid variant. […] In the first maturation approach, sets of three contiguous amino acids were randomized across the mutagenesis region in the TTM-001 and TTM-002 sequences, which spanned from position 450 to position 466, numbered according to SEQ ID NO: 981 and 982. In the second maturation approach, mutagenic primers were used to introduce point mutations at a low frequency, scattered across the mutagenesis region in the TTM-001 and TTM-002 sequences ranging from position 449 to position 466, numbered according to SEQ ID NO: 981 and 982. AAV capsid variants arising from each maturation approach for TTM-001 and TTM-002 were pooled together, for subsequent testing and characterization in NHPs.
The library of pooled matured AAV capsid variants generated using the first maturation approach and the second maturation approach for the TTM-001 and TTM-002 AAV capsid variants were injected into two NHPs. […] Following RNA recovery and RT-PCR amplification, a systematic NGS enrichment analysis was performed to calculate the fold enrichment ratio relative to an AAV9 control, and the peptides comprised within the variants were identified.
Following the RNA recovery and NGS analysis from the second maturation approach, approximately 680,000 capsid variants were identified. The 680,000 matured capsid variants were then filtered based on samples with a raw virus count greater than 10 and a coefficient of variance (CV) of less than 1, which was calculated for each peptide across the brain samples taken from the two NHPs. […] Using this filtering criteria, this led to approximately 64,000 matured capsid variants.

[1] = NHP DRG, NGS, relative to AAV9 control
[2] = NHP brain, NGS, relative to AAV9 control
[3] = NHP heart, NGS, relative to AAV9 control
[4] = NHP liver DNA, NGS, relative to AAV9 control
[5] = NHP liver RNA, NGS, TTM-001 and TTM-002 matured AAV capsid variants, relative to AAV9 control
[6] = NHP muscle, NGS, relative to AAV9 control
[7] = NGS fold-enrichment, DRG, NHP, relative to AAV9
[8] = NGS fold-enrichment, brain, NHP, relative to AAV9
[9] = NGS fold-enrichment, heart, NHP, relative to AAV9
[10] = NGS fold-enrichment, liver DNA, NHP, relative to AAV9
[11] = NGS fold-enrichment, liver RNA, NHP, relative to AAV9
[12] = NGS fold-enrichment, muscle, NHP, relative to AAV9

Sequence | Fold Enrichment relative to AAV9, DRG (NHP) [1] [fold] | Fold Enrichment relative to AAV9, Brain (NHP) [2] [fold] | Fold Enrichment relative to AAV9, Heart (NHP) [3] [fold] | Fold Enrichment relative to AAV9, Liver DNA (NHP) [4] [fold] | Fold Enrichment relative to AAV9, Liver RNA (NHP) [5] [fold] | Fold Enrichment relative to AAV9, Muscle (NHP) [6] [fold] | Fold Enrichment relative to AAV9, DRG (NHP) [7] [fold] | Fold Enrichment relative to AAV9, Brain (NHP) [8] [fold] | Fold Enrichment relative to AAV9, Heart (NHP) [9] [fold] | Fold Enrichment relative to AAV9, Liver DNA (NHP) [10] [fold] | Fold Enrichment relative to AAV9, Liver RNA (NHP) [11] [fold] | Fold Enrichment relative to AAV9, Muscle (NHP) [12] [fold]
KTINGSSSPHRCAQNQQT (peptide inserted in AAV capsid) | 0.000 | 0.000 | 0.000 | 1.829 | 28.887 | 0.000 | – | – | – | – | – | –
KTINGSSSPHWMAQNQQT (peptide inserted in AAV capsid) | 0.000 | 0.000 | 0.000 | 2.390 | 16.635 | 0.000 | – | – | – | – | – | –
KTINGSVSPHCTAQNQQT (peptide inserted in AAV capsid) | 0.000 | 0.000 | 0.000 | 2.955 | 13.502 | 0.000 | – | – | – | – | – | –
KTINGSYSPHCLAQNQQT (peptide inserted in AAV capsid) | 0.000 | 0.000 | 0.000 | 0.309 | 62.942 | 0.000 | – | – | – | – | – | –
KTINGTRSPHKKAQNQQT | 0.225 | 0.700 | 0.052 | 1.152 | 14.173 | 4.082 | – | – | – | – | – | –
KTINHRISPHSKAQNQQT | 0.000 | 0.000 | 0.000 | 1.876 | 42.998 | 0.000 | – | – | – | – | – | –
KTINKCLSPHSKAQNQQT | 0.000 | 0.000 | 0.000 | 5.097 | 30.667 | 0.000 | – | – | – | – | – | –
KTINLGCSPHSKAQNQQT | 0.000 | 0.000 | 0.000 | 0.654 | 12.564 | 0.000 | – | – | – | – | – | –
KTINRQFSPHSKAQNQQT | – | – | – | – | – | – | 0.000 | 0.000 | 0.000 | 4.480 | 10.275 | 0.000
KTINRYSSPHSKAQNQQT | – | – | – | – | – | – | 0.000 | 0.000 | 0.000 | 1.544 | 10.926 | 0.000
KTINSCFSPHSKAQNQQT | 0.000 | 0.000 | 0.000 | 1.016 | 11.847 | 0.000 | – | – | – | – | – | –
KTINWSRSPHSKAQNQQT | 0.000 | 0.000 | 0.000 | 5.624 | 14.399 | 0.000 | – | – | – | – | – | –
KTINYTRSPHSKAQNQQT | 0.000 | 0.000 | 0.000 | 0.431 | 11.514 | 0.000 | – | – | – | – | – | –
KTISGHDSPHISGQYQQT | 0.000 | 0.000 | 0.074 | 0.420 | 12.395 | 1214.588 | – | – | – | – | – | –
KTIVGSGSPHSKPQNQQT | – | – | – | – | – | – | 0.000 | 0.000 | 0.000 | 0.894 | 10.381 | 0.000
KTKLCSGSPHSKAQNQQT | 0.000 | 0.000 | 0.000 | 2.139 | 12.570 | 0.000 | – | – | – | – | – | –
KTMQRSGSPHSKAQNQQT | 0.000 | 0.000 | 0.000 | 3.159 | 18.020 | 0.000 | – | – | – | – | – | –
KTQRKSGSPHSKAQNQQT | 0.000 | 0.000 | 0.000 | 1.439 | 119.659 | 0.000 | – | – | – | – | – | –
KTRKRSGSPHSKAQNQQT | 0.000 | 0.000 | 0.000 | 2.075 | 16.603 | 0.000 | – | – | – | – | – | –
KTRRPSGSPHSKAQNQQT | 0.000 | 0.000 | 0.000 | 2.384 | 42.374 | 0.000 | – | – | – | – | – | –
KTRTRSGSPHSKAQNQQT | 0.000 | 0.000 | 0.000 | 6.894 | 25.852 | 0.000 | – | – | – | – | – | –
KTTGRSGSPHSKAQNQQT | – | – | – | – | – | – | 0.000 | 0.000 | 0.000 | 0.126 | 10.863 | 0.000
KTTRCSGSPHSKAQNQQT | 0.000 | 0.000 | 0.000 | 8.168 | 12.639 | 0.000 | – | – | – | – | – | –
KTTRKSGSPHSKAQNQQT | 0.000 | 0.000 | 0.000 | 2.617 | 18.849 | 0.000 | – | – | – | – | – | –
